We go through one compound from patent publication US20260034119A1, “5-METHOXY-N,N-[…][…], THEIR […], AND METHODS FOR TREATMENT OF NEUROLOGICAL, […], AND SUBSTANCE USE DISORDERS” (priority 2023, published 2026).

“Also recorded” adds a separate entry of the source. Where two headings read alike, the source gives them in different places.

As usually defined, the EC50 is the midpoint of the concentration-response curve.

One data set addresses 5-HT2A (Homo sapiens, UniProt P28223).
Another data set has as its system C57BL/6J mice. In words: Social interaction test after chronic social defeat stress (CSDS).
A short description of data set [1]: In vivo pharmacokinetics in mice (plasma and brain, subcutaneous). The arrangement: species or system mouse. The settings on record: for Kp / Cmax: male, C57BL/6, mouse, sc, 1 mg/kg; for Kp: brain and plasma. The protocol: Test System: Healthy male C57BL/6 mice (8-12 weeks old) weighing between 20 to 35 g were procured from Global (India). Three mice were housed in each cage. Temperature and humidity were maintained at 22±3° C. and 30-70%, respectively and illumination was controlled to give a sequence of 12 hr light and 12 hr dark cycle. Temperature and humidity were recorded by auto-controlled data logger system. All animals were provided laboratory rodent diet (Envigo Research Private Ltd, Hyderabad, India). Reverse osmosis water treated with UV light was provided ad libitum.
Study Design: Total twenty-seven male mice were used in this study with 3 mice/time point design. Animals were administered subcutaneously […] with solution formulation of compound at the requited dose.
Formulation Preparation: Accurately weighed of the desired compound was taken in a labeled bottle. To this the appropriate amount of normal saline was added, vortexed and followed by addition of 2 mol. equiv. of glacial acetic acid. The above formulation was again vortexed and sonicated for about 1 h with intermittent vortexing to obtain clear solution. The final dose formulation was filtered through 0.45 micron filter. No adverse clinical signs in any animals during study period.
Sample Collection: Blood samples (approximately 60 μL) were collected under light isoflurane anesthesia (Surgivet®) from retro orbital plexus from a set of three mice at 0.083, 0.25, 0.5, 1, 2, 4, 8, and 12 hr. Immediately after blood collection, plasma was harvested by centrifugation at 4000 rpm, 10 min at […] and samples were stored at −70±10° C. until bioanalysis. Following blood collection, immediately animals were sacrificed followed by abdominal vena-cava was cut open and whole body was perfused from heart using 10 mL of normal saline. Brain samples were collected from set of three mice at 0.083, 0.25, 0.5, 1, 2, 4, 8, and 12 hr. After isolation, brain samples were rinsed three times in ice cold normal saline (for 5-10 seconds/rinse using ˜5-10 mL normal saline in disposable petri dish for each rinse) and dried on blotting paper. Brain samples were homogenized using ice-cold phosphate buffer saline (pH-7.4). Total homogenate volume was three times the tissue weight. All homogenates were stored below −70±10° C. until bioanalysis.
Concentrations of the compound in mouse plasma and brain samples were determined by fit for purpose LC-MS/MS method. The sample processing and extraction procedure, chromatographic and mass spectrometric conditions as follows:
Non-Compartmental-Analysis tool of Phoenix WinNonlin® Version 8.0 (Certara, Princeton, NJ, USA) was used to assess the pharmacokinetic parameters. Peak plasma concentration (Cmax) and time for the peak plasma concentration (Tmax) were the observed values. The areas under the concentration time curve (AUClast and AUCinf) were calculated by linear trapezoidal rule. The terminal elimination rate constant, ke was determined by regression analysis of the linear terminal portion of the log plasma concentration-time curve. Tissue-Kps were calculated using Microsoft Excel® (Microsoft Corporation, […], WA, USA).

In the next data set the target is T1, PMAT (Homo sapiens, UniProt Q7RTT9).
T1 construct: expressed in transfected cells; host or cells: Flp-In T-Rex cell line (ThermoFisher), tetracycline-induced
T1 sequence (Q7RTT9 1-530): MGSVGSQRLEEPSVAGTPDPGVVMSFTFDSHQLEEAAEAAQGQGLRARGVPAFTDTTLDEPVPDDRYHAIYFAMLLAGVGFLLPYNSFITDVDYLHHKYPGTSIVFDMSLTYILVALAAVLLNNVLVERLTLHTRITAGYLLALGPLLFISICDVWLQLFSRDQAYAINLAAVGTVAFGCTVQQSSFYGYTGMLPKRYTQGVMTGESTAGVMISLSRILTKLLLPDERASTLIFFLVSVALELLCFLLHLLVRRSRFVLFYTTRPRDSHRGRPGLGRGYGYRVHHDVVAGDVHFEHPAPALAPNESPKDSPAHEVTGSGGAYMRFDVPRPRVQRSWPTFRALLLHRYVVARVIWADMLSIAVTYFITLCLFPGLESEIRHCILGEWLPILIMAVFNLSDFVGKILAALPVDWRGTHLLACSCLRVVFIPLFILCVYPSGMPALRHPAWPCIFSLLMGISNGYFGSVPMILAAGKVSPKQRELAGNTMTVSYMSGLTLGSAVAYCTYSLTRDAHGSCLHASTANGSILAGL
In words: PMAT uptake inhibition. Format: cell-based. The settings on record: compared with 5-HT1A. The protocol: Inducible cell lines stably expressing OCT1, OCT2, or PMAT were generated using the Flp-In T-Rex cell line (ThermoFisher) according to manufacturer recommendations. Cells were maintained in DMEM supplemented with 10% FBS, 100 μg/ml hygromycin B (GoldBio), and 10 μg/ml blasticidin (GoldBio). To measure uptake inhibition, cells were seeded into poly-L-lysine coated clear-bottom 384-well plates at a density of 25,000 cells per well in DMEM containing 10% FBS and 2 μg/ml of tetracycline (Sigma) to induce transporter expression. […] Cells were incubated with drug for 30 min at 37° C. Fluorescent substrate was then added to the cells. […] Cells were incubated with respective substrates for an hour at 37° C. OCT2 cells were read directly in a Victor NIVO plate reader using 495 nm excitation and 580 emission filter for 0.1 s. OCT1 and PMAT cells were washed in HBSS supplemented with 20 mM HEPES pH 7.4 before reading in a Victor NIVO plate reader using 435 nm excitation and 480 nm emission filter for 0.1 s.

Sequence of 5-HT2A (P28223 whole entry): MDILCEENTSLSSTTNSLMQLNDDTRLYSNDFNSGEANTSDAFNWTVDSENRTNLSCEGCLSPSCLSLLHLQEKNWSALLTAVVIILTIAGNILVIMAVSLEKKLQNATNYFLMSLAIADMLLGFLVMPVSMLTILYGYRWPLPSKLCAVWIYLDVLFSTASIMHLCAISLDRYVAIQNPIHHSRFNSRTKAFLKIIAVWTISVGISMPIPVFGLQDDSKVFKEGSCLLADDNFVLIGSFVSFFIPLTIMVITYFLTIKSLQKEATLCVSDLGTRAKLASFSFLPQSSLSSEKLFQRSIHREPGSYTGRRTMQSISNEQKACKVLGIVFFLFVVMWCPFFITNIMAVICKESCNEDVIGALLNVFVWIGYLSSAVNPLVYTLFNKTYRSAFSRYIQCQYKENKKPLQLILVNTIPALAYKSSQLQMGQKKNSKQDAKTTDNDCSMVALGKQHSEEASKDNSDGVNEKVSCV

As to `COc1ccc2[nH]cc(CCN3CCCC3)c2c1F` [4-F, 5-MeO-PyrT, 4-Fluoro, 5-methoxypyrrolidinyl-tryptamine], the EC50 on 5-HT2A (Gq BRET, 5-HT2A WT) was determined as 300 nM; at 5-HT2A (read-out: Gq BRET EC50) it was 300 nM. Besides, the pEC50 result at 5-HT2A (Gq BRET, 5-HT2A WT) is recorded as “(6.52,”. Further, the “number of resilient mice (SI ratio >1)” value in the data set on C57BL/6J mice (drug- vs vehicle-treated stressed animals) is “markedly increases the number of resilient mice”. In addition, the “general locomotion at the social interaction test” value with C57BL/6J mice (mice, one s.c. administration) is given as “no effects of the pharmacological intervention on general locomotion; also recorded: no apparent alterations in locomotor activity”. In the data set on C57BL/6J mice (stressed mice, co-administered 5-HT1A antagonist WAY-100635), the “amelioration of SI deficits under WAY-100635 co-administration” value is “blocked”. Moreover, the “corner time (anxiety-like behavior)” value in the data set with C57BL/6J mice (stressed mice, one s.c. administration) is “rescued; also recorded: no longer observed”. Also, in the data set on C57BL/6J mice (stressed mice, one s.c. administration, test 24 hr post drug), the “social interaction deficit induced by chronic social defeat stress” value is listed as “rescued; also recorded: rescuing the social interaction deficit”. The Kp was 3.3 in data set [1] (mouse, 1 mg/kg s.c., read-out: total brain:plasma ratio) and 0.91 in data set [1] (mouse, 1 mg/kg s.c., read-out: unbound brain:plasma ratio). The Cmax in data set [1] (brain, mouse brain, 1 mg/kg SC, read-out: Total Cmax (ng/mL), Brain) was determined as 143 ng/mL; in data set [1] (brain, mouse, 1 mg/kg subcutaneous, read-out: Cmax/brain) it was 143 ng/mL; in data set [1] (plasma, mouse plasma, 1 mg/kg SC, read-out: Total Cmax (ng/mL), Plasma), 44 ng/mL. For the same compound, the “Total AUClast ((hr*ng)/mL), Brain” value in data set [1] (mouse brain, 1 mg/kg SC) worked out at 128.34 ng·h/mL. Moreover, the “time at which brain penetration peaks” value in data set [1] (mouse brain, 1 mg/kg s.c.) was found to be 30 min. Moreover, the “Total AUClast ((hr*ng)/mL), Plasma” value in data set [1] (mouse plasma, 1 mg/kg SC) came to 26.40 ng·h/mL. Also, the “compound largely cleared within” value in data set [1] (mouse, 1 mg/kg s.c.) was at most 2 h. The “estimated free drug concentration in the brain at Tmax” value in data set [1] (mouse, 1 mg/kg s.c.) is given as around 100 nM. Further, the “activity at other neurotransmitter transporters (PMAT)” value on PMAT was “substantially lower activity”.
